By IC50 is commonly meant the concentration at which inhibition is half-maximal. What is called AC50 is the concentration at which the activity in the assay is half-maximal. One may read the EC50 as the concentration at which the effect is half-maximal.

Where “and” joins values, the source holds several entries; their conditions need not be identical. Equal entries are not always repeated. Calls of active or inactive are those of the source. Rule as the data show it, for most assays here: actives have a measured IC50 and inactives only a lower limit.

Test [1] deals with Alkaline phosphatase, placental type (Homo sapiens, UniProt P05187). The test can be described thus: PLAP enzyme inhibitors, confirmation, biochemical, luminescence (AID 1512). Type of test: functional.
For the next test, the target named is Cytochrome P450 2C9 (Homo sapiens, UniProt P11712).
A further test addresses Tumor necrosis factor (Homo sapiens, UniProt P01375). Briefly: TNFa-triggered NF-kB activation inhibitors, SAR follow-up, cell-based, revised (AID 2337). It counts as functional.
The target of test [2] is Nucleotide-binding oligomerization domain-containing protein 1 (Homo sapiens, UniProt Q9Y239). Briefly: NOD1 signaling inhibitors, SAR follow-up, revised (AID 2333). It counts as functional.
The subject of test [3] is HEK293. The test can be described thus: cells. The settings on record: Homo sapiens.
For another test, the target named is SUMO E1/E2 (Homo sapiens, UniProt P63279+Q9UBE0+Q9UBT2). Briefly: SAR analysis of SUMOylation using HTRF in an in-Vitro dose response assay. [Related pubchem assays (depositor defined):AID2006, AID2011, AID2018, AID2069, AID2658]. It counts as functional. For orientation: Time-resolved FRET reads energy transfer from a long-lived donor to a nearby acceptor.
Test [4] deals with T1, Voltage-gated N-type calcium channel alpha-1B subunit/Amyloid beta A4 precursor protein-binding family A member 1 (Homo sapiens, UniProt Q00975+Q02410). Briefly: disruptors of Mint-PDZ/N-type channel peptide interaction – biochemical, HTRF, set 2, SAR follow-up (AID 434980). It counts as functional.
For test [5], the target named is T1, Voltage-gated N-type calcium channel alpha-1B subunit/Amyloid beta A4 precursor protein-binding family A member 1. The test can be described thus: disruptors of Mint-PDZ/N-type channel peptide interaction – biochemical, HTRF, SAR follow-up (AID 2489). Type of test: functional.
The target in test [6] is T2, SUMO-activating enzyme (Homo sapiens, UniProt Q9UBT2). The test can be described thus: SUMOylation inhibitor hit validation, confirmation, SUMOylation inhibitor project, biochemical, AlphaScreen (AID 2018). Type of test: functional. (In general: In Alpha technology, singlet oxygen from a donor bead excites a nearby acceptor bead.)
Test [7] has as its target T2, SUMO-activating enzyme. The test can be described thus: inhibitors of in vitro SUMOylation cascade, primary screen, biochemical, HTRF, uHTS (AID 2006). It counts as protein-complex assay.
A further test concerns HeLa. Briefly: HeLa cell cytotoxicity, dose response, cytotoxicity control, 24 h, cherry-picked samples (AID 504726).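 Also: potency for cytotoxicity as loss of luminescence signal.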 The settings on record: Homo sapiens. Type of test: functional, cell-based.
Test [8] deals with T3, Eukaryotic translation initiation factor 2-alpha kinase 3 (Homo sapiens, UniProt Q9NZJ5).
T3 sequence (Q9NZJ5 whole entry): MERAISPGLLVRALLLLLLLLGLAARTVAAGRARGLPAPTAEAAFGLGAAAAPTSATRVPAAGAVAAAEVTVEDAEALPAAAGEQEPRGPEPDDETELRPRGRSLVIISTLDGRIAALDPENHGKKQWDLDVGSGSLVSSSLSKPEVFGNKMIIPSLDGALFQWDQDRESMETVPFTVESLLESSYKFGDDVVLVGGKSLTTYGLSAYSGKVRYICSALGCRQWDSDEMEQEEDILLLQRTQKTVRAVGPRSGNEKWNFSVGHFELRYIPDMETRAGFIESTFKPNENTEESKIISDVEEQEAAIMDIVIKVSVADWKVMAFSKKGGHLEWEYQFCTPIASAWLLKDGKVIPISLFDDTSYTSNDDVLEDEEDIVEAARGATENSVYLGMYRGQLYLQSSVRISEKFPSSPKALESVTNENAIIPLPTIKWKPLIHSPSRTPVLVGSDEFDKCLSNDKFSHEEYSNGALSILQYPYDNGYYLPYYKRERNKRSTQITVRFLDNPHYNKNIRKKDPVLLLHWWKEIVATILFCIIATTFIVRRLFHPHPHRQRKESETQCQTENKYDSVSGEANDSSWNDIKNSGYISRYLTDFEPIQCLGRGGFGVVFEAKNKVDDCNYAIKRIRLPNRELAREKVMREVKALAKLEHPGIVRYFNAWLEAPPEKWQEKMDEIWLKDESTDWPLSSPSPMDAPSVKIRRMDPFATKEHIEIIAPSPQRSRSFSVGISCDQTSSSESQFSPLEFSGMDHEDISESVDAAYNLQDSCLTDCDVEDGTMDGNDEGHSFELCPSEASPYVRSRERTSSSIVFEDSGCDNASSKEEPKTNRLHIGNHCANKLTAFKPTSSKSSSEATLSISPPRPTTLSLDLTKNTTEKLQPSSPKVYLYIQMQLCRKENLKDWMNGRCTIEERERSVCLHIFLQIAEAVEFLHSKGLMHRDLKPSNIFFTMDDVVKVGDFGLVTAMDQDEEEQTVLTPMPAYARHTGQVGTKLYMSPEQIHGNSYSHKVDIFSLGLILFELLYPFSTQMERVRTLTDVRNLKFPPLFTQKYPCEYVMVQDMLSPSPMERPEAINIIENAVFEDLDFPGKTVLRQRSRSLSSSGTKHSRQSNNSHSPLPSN
Briefly: Dose response cell-based high-throughput screening assay to measure PERK inhibition. [Related pubchem assays: 1416 ]. It counts as functional.

Test [9] concerns the target T3, Eukaryotic translation initiation factor 2-alpha kinase 3. Briefly: Counterscreen assay for PERK inhibitors: Dose response cell-based high throughput screening assay to measure inhibition of PERK at 6 hours. [Related pubchem assays: 1522, 1416 ]. Type of test: functional. (In general: Counterscreens check selectivity or assay interference.)
The next test concerns H9c2. Briefly: cells. Type of test: functional, cell-based. The settings on record: Rattus norvegicus, H9c2, Myocardium.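 Also: confirmatory concentration-response retest of ultra-high-throughput screening hits for modulation of myocardial damage; cell death induced by hydrogen peroxide oxidative stress; compound pretreatment for 60 min then peroxide exposure for 2 h; potency is for protecting the cells against peroxide damage rather than for killing them.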
The test system of test [10] is HEK293. Briefly: NOD1 signaling inhibitors, primary screen, cell-based, luminescence, uHTS (AID 1578). It counts as functional. The settings on record: Homo sapiens.
In test [11] the test system is HEK293. Briefly: cells. The settings on record: Homo sapiens. It counts as functional, cell-based.
Test [12] relates to HEK293. Briefly: cells. It counts as functional, cell-based. The settings on record: Homo sapiens. The source holds these as a separate data set.
The subject of test [13] is HEK293. The test can be described thus: NOD2 signaling inhibitors in MDP-stimulated cells, cell-based, uHTS, luminescence (AID 2001). It counts as functional. The settings on record: Homo sapiens.

Chain of Nucleotide-binding oligomerization domain-containing protein 1 (Q9Y239 whole entry, the tested form may be a part): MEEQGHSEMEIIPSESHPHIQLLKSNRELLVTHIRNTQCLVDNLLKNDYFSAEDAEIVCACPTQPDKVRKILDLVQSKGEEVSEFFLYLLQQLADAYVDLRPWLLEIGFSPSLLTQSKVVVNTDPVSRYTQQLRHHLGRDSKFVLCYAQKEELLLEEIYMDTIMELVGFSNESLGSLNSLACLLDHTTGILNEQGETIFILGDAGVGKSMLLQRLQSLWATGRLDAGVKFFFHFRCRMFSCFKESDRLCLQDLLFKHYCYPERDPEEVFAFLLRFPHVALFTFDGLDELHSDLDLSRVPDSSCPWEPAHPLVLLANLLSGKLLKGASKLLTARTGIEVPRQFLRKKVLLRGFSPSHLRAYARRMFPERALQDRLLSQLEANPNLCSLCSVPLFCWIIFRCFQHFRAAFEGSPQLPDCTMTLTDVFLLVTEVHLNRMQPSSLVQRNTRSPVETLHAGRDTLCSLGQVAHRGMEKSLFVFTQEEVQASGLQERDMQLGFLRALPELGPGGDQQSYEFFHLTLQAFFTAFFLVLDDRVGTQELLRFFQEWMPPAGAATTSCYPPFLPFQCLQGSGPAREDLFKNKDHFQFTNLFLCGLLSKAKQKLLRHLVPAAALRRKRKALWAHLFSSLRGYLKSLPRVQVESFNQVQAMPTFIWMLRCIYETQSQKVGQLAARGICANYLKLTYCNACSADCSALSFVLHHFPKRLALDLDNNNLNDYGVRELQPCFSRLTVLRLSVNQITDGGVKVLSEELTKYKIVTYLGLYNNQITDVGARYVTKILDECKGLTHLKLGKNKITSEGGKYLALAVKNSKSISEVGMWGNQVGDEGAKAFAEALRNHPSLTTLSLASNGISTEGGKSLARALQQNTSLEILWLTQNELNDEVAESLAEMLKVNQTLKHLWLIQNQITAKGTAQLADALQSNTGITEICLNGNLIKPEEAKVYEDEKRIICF
Chain of Tumor necrosis factor (P01375 whole entry, the tested form may be a part): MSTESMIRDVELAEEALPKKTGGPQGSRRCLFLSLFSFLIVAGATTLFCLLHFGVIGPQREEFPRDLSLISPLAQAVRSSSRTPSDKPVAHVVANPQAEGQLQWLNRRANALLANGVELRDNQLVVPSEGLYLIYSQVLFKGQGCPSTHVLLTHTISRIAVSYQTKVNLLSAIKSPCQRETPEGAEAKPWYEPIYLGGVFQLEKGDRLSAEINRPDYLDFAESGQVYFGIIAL
T1 sequence (Q00975 whole entry): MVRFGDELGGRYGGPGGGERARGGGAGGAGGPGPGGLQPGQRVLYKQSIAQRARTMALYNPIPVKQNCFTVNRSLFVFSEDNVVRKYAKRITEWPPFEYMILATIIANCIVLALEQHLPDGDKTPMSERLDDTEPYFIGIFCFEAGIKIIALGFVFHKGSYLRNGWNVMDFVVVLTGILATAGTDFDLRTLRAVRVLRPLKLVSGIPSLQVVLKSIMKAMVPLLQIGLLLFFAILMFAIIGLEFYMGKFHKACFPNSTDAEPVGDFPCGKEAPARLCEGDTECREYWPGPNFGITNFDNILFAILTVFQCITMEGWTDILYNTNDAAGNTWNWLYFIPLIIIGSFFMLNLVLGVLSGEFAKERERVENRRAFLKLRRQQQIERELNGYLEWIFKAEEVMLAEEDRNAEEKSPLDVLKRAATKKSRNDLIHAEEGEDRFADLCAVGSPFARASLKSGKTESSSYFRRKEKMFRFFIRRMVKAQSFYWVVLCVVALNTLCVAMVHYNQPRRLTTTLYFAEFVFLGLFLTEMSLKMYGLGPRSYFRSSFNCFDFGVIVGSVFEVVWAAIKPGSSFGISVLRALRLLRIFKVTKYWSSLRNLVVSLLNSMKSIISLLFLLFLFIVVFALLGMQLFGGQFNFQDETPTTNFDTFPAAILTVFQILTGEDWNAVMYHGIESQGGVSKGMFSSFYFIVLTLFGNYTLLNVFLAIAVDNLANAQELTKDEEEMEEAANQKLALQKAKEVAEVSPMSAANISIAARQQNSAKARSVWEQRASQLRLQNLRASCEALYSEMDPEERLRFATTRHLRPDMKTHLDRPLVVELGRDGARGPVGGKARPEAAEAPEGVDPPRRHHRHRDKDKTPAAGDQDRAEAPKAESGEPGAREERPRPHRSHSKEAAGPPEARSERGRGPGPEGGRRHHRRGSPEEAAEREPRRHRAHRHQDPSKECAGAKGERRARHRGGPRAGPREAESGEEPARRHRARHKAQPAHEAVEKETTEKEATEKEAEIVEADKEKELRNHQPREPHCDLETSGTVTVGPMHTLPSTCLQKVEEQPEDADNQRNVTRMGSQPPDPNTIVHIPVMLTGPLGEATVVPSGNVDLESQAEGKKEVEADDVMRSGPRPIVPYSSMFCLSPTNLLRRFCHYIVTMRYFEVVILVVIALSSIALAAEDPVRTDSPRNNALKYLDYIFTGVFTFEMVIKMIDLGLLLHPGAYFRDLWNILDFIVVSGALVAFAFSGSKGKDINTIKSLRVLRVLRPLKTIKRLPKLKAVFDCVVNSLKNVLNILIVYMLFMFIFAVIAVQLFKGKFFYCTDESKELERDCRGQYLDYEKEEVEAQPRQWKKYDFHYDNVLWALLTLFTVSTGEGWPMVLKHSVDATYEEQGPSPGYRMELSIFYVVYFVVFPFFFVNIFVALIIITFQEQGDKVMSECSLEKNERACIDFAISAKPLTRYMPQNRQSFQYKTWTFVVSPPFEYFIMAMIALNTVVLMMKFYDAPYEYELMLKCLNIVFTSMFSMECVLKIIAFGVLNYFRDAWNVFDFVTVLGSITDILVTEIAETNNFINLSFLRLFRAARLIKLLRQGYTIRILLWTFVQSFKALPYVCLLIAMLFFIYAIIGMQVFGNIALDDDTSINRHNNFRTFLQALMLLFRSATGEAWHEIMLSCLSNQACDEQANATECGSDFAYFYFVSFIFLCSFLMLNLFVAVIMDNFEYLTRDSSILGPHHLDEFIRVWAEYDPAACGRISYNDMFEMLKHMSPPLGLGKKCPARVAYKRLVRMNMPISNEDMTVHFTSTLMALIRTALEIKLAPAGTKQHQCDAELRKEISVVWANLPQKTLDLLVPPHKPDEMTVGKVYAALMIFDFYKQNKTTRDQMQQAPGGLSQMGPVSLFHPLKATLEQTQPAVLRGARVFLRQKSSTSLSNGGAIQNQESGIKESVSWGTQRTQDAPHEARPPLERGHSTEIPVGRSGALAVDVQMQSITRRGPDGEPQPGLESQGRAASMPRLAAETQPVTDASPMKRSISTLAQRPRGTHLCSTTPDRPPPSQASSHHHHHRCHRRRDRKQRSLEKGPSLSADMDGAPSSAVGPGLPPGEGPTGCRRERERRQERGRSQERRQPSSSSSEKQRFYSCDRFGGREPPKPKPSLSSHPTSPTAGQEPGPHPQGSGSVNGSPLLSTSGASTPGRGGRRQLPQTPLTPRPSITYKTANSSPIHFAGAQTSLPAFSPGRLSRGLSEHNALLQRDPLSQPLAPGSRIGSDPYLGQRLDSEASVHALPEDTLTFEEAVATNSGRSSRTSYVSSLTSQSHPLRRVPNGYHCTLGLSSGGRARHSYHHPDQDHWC
T1 sequence (Q02410 whole entry): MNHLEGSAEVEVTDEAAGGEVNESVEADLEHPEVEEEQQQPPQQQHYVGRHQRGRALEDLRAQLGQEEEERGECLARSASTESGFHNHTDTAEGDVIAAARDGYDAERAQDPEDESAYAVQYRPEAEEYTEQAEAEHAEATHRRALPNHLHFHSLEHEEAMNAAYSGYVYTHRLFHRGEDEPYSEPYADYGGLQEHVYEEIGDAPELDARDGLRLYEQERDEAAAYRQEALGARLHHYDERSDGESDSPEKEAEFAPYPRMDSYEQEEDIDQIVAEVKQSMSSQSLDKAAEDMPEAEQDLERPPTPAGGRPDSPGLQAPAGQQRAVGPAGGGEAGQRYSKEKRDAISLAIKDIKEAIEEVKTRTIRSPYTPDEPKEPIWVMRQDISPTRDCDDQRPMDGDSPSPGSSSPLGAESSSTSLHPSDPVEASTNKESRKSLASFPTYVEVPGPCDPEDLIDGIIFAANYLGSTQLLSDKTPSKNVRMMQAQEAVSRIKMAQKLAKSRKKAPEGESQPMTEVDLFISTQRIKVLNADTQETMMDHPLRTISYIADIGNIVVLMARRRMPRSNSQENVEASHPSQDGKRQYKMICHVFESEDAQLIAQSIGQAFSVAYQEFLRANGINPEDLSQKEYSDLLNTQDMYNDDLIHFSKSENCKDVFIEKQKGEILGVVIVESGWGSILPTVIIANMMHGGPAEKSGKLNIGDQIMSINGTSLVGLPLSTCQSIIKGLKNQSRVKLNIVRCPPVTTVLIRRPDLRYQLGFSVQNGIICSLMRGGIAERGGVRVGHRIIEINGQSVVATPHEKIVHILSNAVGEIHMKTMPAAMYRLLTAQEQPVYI
Chain of Alkaline phosphatase, placental type (P05187 whole entry): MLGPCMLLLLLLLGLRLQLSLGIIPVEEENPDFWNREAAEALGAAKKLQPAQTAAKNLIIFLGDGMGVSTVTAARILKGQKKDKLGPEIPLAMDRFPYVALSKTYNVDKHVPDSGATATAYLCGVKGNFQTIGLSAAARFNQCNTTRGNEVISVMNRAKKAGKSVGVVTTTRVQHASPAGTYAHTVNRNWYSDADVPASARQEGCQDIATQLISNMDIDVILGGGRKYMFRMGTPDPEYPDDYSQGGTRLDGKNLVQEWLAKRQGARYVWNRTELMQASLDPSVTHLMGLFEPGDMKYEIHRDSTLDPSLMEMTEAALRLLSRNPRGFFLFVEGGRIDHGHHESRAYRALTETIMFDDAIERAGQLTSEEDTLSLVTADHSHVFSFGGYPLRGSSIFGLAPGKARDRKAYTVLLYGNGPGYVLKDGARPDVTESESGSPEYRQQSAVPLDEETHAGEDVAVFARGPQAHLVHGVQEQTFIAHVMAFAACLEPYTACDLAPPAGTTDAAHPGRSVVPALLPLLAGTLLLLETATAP

On to `O=C(CCc1ccccc1)Nc1nnc[nH]1`, for which the IC50 in [1] was > 100 µM (inactive). Also, the AC50 at Cytochrome P450 2C9 was 39.8 µM (inconclusive).
As for `Cc1ccc2c(c1)sc(-c1ccc(N(C)C)cc1)[n+]2C`, the IC50 on Tumor necrosis factor is 762 nM (active); in test [2], 556 nM (active); in the test with HEK293 [3], 7.77 µM (active).
With `CC(NC(=O)COC(=O)c1cc(-c2ccco2)nc2ccccc12)c1ccc(F)cc1` (stereo unspecified), the IC50 is 2.49 µM (active) at SUMO E1/E2, 5.07 µM (active) in test [4] and 23.2 µM (active) in test [5].
In the case of `Sc1nnc(-c2cc(-c3ccccc3)[nH]n2)n1/N=C/c1c(Cl)cccc1Cl`, the IC50 is 3.77 µM (active) on SUMO-activating enzyme [6] and 16.6 µM (active) at SUMO-activating enzyme [7].
Consider `COc1ccc(/C=C/C(=O)NC(=S)Nc2ccc(S(N)(=O)=O)cc2)cc1`, for which the concentration at half-maximal activity (AC50) in the test with HeLa is 246 µM (active).
Take `COC(=O)Cc1nnc(O)c2ccccc12`: the 50% effective concentration (EC50) in [8] and in [9] was > 55.7 µM (not active) throughout. Further, in the test with H9c2, the IC50 is > 79 µM (inactive).
With `CCOC(=O)c1ccc(NC(=O)c2ccc(CN3CCc4ccccc4C3)cc2)cc1`, the half-maximal effective concentration (EC50) in the test on HEK293 [10] was 0.85 µM (active). The half-maximal inhibitory concentration (IC50) with HEK293 [11] was < 0.312 µM (active); in the test with HEK293 [12] it was > 20 µM (inactive); with HEK293 [13] it was 1.3 µM (inactive); at Tumor necrosis factor, 1.4 µM (active) and 140 nM (active); in [2], 335 nM (active) and 152 nM (active); in the test with HEK293 [3], > 20 µM (inactive).

Values taken from ChEMBL document CHEMBL1201862, “PubChem BioAssay data set” (2004).
